Source: patent US20200306295A1, “METHOD AND DEVICE FOR ANNIHILATION OF Staphylococcus aureus” (priority 2017, published 2020)

System: 200 kinds of cytokines
Test: Fold change of 200 cytokines in homogenized wound tissue
Format: in vivo, Balb/c mice
Text: To quantify the physiological condition of the wound tissues, we measured the concentrations of 200 kinds of cytokines (Table. 1) from the supernatant of homogenized tissue solution. Cytokines are small secreted proteins released by cells and have specific effect on the interactions and communications between cells (25).
To initiate the formation of a skin wound, five groups (n=5) of eight-week old female Balb/c mice (obtained from Harlan Laboratories, Indianapolis, Ind., USA) were disinfected with ethanol (70%) and shaved on the middle of the back (approximately a one-inch by one-inch square region around the injection site) one day prior to infection as described from a reported procedure (3). To prepare the bacterial inoculum, an aliquot of overnight culture of MRSA USA300 was transferred to fresh Tryptic soy broth and shaken at 37° C. until an OD600 value of ˜1.0 was achieved. The cells were centrifuged, washed once with PBS, re-centrifuged, and then re-suspended in PBS. Mice subsequently received an intradermal injection (40 μL) containing 2.40×10^9 CFU/mL MRSA USA300.
One group of mice was left untreated (negative control). Each group of mice receiving a particular treatment regimen was housed separately in a ventilated cage with appropriate bedding, food, and water. […] Mice were treated twice daily (once every 12 hours) for three days, before they were humanely euthanized via CO2 asphyxiation 12 hours after the last dose was administered. The region around the skin wound was lightly swabbed with ethanol (70%) and excised. The tissue was subsequently homogenized in PBS. The homogenized tissue was then serially diluted in PBS before plating onto mannitol salt agar plates. Plates were incubated for at least 19 hours at 37° C. before viable MRSA CFU/mL were counted for each group. Outlier was removed based upon the Dixon Q Test.

Compound: CC(=O)O[C@H]1C[C@@]2(C)[C@@H](C[C@@H](O)[C@H]3[C@@]4(C)CC[C@@H](O)[C@@H](C)[C@@H]4CC[C@@]32C)/C1=C(\CCC=C(C)C)C(=O)O [fusidic acid]
- fold change of MBL-2 (mean) (cytokine MBL-2, group mean, wound tissue of MRSA-infected mice): 0.0893
- fold change of Meteorin (mean) (cytokine Meteorin, group mean, wound tissue of MRSA-infected mice): 0.3361
- fold change of NOV (mean) (cytokine NOV, group mean, wound tissue of MRSA-infected mice): −0.2053
- fold change of Nope (mean) (cytokine Nope, group mean, wound tissue of MRSA-infected mice): 0.0534
- fold change of OX40 Ligand (mean) (cytokine OX40 Ligand, group mean, wound tissue of MRSA-infected mice): −0.1454
- fold change of Osteoactivin (mean) (cytokine Osteoactivin, group mean, wound tissue of MRSA-infected mice): 1.1132
- fold change of P-Cadherin (mean) (cytokine P-Cadherin, group mean, wound tissue of MRSA-infected mice): 0.5883
- fold change of Periostin (mean) (cytokine Periostin, group mean, wound tissue of MRSA-infected mice): 0.1651
- fold change of PlGF-2 (mean) (cytokine PlGF-2, group mean, wound tissue of MRSA-infected mice): −0.0798
- fold change of Progranulin (mean) (cytokine Progranulin, group mean, wound tissue of MRSA-infected mice): −0.4424
- fold change of Prostasin (mean) (cytokine Prostasin, group mean, wound tissue of MRSA-infected mice): 0.1030
- fold change of Renin 1 (mean) (cytokine Renin 1, group mean, wound tissue of MRSA-infected mice): −0.4138
- fold change of TIM-1 (mean) (cytokine TIM-1, group mean, wound tissue of MRSA-infected mice): −0.0806
- fold change of Testican 3 (mean) (cytokine Testican 3, group mean, wound tissue of MRSA-infected mice): −0.4097
- fold change of Tryptase ε (mean) (cytokine Tryptase ε, group mean, wound tissue of MRSA-infected mice): −0.0627
- share of 200 cytokines with negative fold change vs untreated (fusidic acid alone): around 50%
- fold change of 4-1BB (mean, wound tissue): −0.0924
- fold change of 6Ckine (mean, wound tissue): 0.0930
- fold change of ACE (mean, wound tissue): −0.3271
- fold change of ADAMTS1 (mean, wound tissue): 0.2350
- fold change of ALK-1 (mean, wound tissue): −0.0491
- fold change of ANG-3 (mean, wound tissue): 0.0313
- fold change of ANGPTL3 (mean, wound tissue): −0.2231
- fold change of AR (mean, wound tissue): 0.6274
- fold change of Activin A (mean, wound tissue): 0.2305
- fold change of Adiponen (mean, wound tissue): 0.0147
- fold change of Artemin (mean, wound tissue): 0.4218
- fold change of Axl (mean, wound tissue): 0.0523
- fold change of B7-1 (mean, wound tissue): −0.0561
- fold change of BAFF R (mean, wound tissue): 0.0687
- fold change of BLC (mean, wound tissue): −0.3200
- fold change of BTC (mean, wound tissue): 3.8576
- fold change of C5a (mean, wound tissue): 0.1215
- fold change of CCL6 (mean, wound tissue): −0.4027
- fold change of CCL28 (mean, wound tissue): 1.0791
- fold change of CD6 (mean, wound tissue): 0.3476
- fold change of CD27 (mean, wound tissue): 0.2818
- fold change of CD27L (mean, wound tissue): −0.0491
- fold change of CD30 (mean, wound tissue): 0.0137
- fold change of CD30L (mean, wound tissue): −0.0682
- fold change of CD36 (mean, wound tissue): 0.0674
- fold change of CD40 (mean, wound tissue): 0.3337
- fold change of CD40L (mean, wound tissue): 0.0244
- fold change of CD48 (mean, wound tissue): −0.0498
- fold change of CRP (mean, wound tissue): −0.0863
- fold change of CT-1 (mean, wound tissue): −0.0581
- fold change of CTLA4 (mean, wound tissue): 0.2149
- fold change of CXCL16 (mean, wound tissue): 0.2447
- fold change of Chemerin (mean, wound tissue): 0.1948
- fold change of Chordin (mean, wound tissue): −0.0599
- fold change of Clusterin (mean, wound tissue): 0.2455
- fold change of Cystatin C (mean, wound tissue): −0.0271
- fold change of DLL4 (mean, wound tissue): −0.0252
- fold change of Decorin (mean, wound tissue): −0.0222
- fold change of Dkk-1 (mean, wound tissue): 0.1157
- fold change of Dtk (mean, wound tissue): 0.1217
- fold change of E-Cadherin (mean, wound tissue): 0.1848
- fold change of E-selectin (mean, wound tissue): −0.2004
- fold change of EDAR (mean, wound tissue): −0.4592
- fold change of EGF (mean, wound tissue): 0.0517
- fold change of Endocan (mean, wound tissue): 0.0559
- fold change of Endoglin (mean, wound tissue): 0.4267
- fold change of Eotaxin (mean, wound tissue): 0.8019
- fold change of Eotaxin-2 (mean, wound tissue): 0.0292
- fold change of Epigen (mean, wound tissue): −0.0490
- fold change of Epiregulin (mean, wound tissue): −0.2220
- fold change of Fas (mean, wound tissue): 0.0163
- fold change of Fas L (mean, wound tissue): −0.4112
- fold change of Fcg RIIB (mean, wound tissue): 0.0602
- fold change of Fetuin A (mean, wound tissue): −0.6614
- fold change of Flt-3L (mean, wound tissue): 0.1619
- fold change of Fractalkine (mean, wound tissue): −0.2364
- fold change of G-CSF (mean, wound tissue): 0.1394
- fold change of GITR (mean, wound tissue): 0.3966
- fold change of GITR L (mean, wound tissue): 0.2327
- fold change of GM-CSF (mean, wound tissue): −0.1708
- fold change of Galectin-1 (mean, wound tissue): 0.0284
- fold change of Galectin-3 (mean, wound tissue): 0.0624
- fold change of Galectin-7 (mean, wound tissue): 0.7990
- fold change of Gas 1 (mean, wound tissue): 0.0715
- fold change of Gas 6 (mean, wound tissue): −0.0661
- fold change of Granzyme B (mean, wound tissue): 0.5603
- fold change of Gremlin (mean, wound tissue): 4.9707
- fold change of H60 (mean, wound tissue): 0.2171
- fold change of HAI-1 (mean, wound tissue): 0.2271
- fold change of HGF (mean, wound tissue): 0.2701
- fold change of HGF R (mean, wound tissue): 0.0292
- fold change of I-TAC (mean, wound tissue): 0.3744
- fold change of ICAM-1 (mean, wound tissue): 1.5512
- fold change of IFNg (mean, wound tissue): −0.0599
- fold change of IFNg R1 (mean, wound tissue): 0.0709
- fold change of IGF-1 (mean, wound tissue): −0.4445
- fold change of IGFBP-2 (mean, wound tissue): −0.0879
- fold change of IGFBP-3 (mean, wound tissue): −0.2120
- fold change of IGFBP-5 (mean, wound tissue): −0.0782
- fold change of IGFBP-6 (mean, wound tissue): −0.2897
- fold change of IL-1 R4 (mean, wound tissue): −0.0208
- fold change of IL-1a (mean, wound tissue): −0.0503
- fold change of IL-1b (mean, wound tissue): −0.2158
